# Measurements reported in BindingDB's records for doi:10.7270/Q2TX3CTT (Broad Institute, 2010).
# pEC50: −log10 of the molar value.
# Molecular target: Glycogen synthase kinase-3 beta (Homo sapiens, UniProt P49841)
# Assay: GSK3beta kinase inhibitor potency, dose response, biochemical, luminescence, cell-free homogeneous, retest (AID 434954)
# Glycogen synthase kinase-3 beta, sequence (P49841 whole entry): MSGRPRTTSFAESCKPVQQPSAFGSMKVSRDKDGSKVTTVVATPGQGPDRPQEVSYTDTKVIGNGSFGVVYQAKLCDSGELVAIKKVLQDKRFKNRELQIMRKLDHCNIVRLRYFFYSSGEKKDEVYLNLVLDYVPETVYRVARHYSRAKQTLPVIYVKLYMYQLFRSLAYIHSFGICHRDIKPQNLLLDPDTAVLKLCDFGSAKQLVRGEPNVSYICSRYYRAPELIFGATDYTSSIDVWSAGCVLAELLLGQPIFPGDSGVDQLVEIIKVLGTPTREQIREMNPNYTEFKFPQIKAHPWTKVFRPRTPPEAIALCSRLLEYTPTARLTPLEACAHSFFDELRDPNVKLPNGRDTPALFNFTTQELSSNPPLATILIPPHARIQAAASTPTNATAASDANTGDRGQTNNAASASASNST
row,SMILES,pEC50
1,Nc1nonc1-n1nnc(C(=O)NN=Cc2ccc(Cl)cc2Cl)c1CN1CCCCC1 [MLS000950038],< 3.52
2,Nc1nonc1-n1nnc(C(=O)NN=Cc2cccc(Cl)c2)c1CN1CCCCCC1 [MLS000950585],5.40
3,COc1cccc2cc(C(=O)Oc3ccccc3)c(=O)oc12 [MLS000999696],< 3.52
4,CCOc1ccc(CN=Nc2ccccn2)cc1OC [MLS001005584],< 3.52
5,O=C(COC(=O)c1cc(=O)c2ccccc2o1)NC1CCCC1 [MLS001017387],< 3.52
6,COc1ccc(-c2nn(-c3ccccc3)cc2/C=C/C(=O)N2CCOCC2)cc1OC [MLS001017845],< 3.52
7,COc1ccc(Nc2nc(-c3ccccc3)c(C(=O)Nc3cccnc3)s2)cc1 [MLS001018742],< 3.52
8,O=C(CCCC1=Nc2ccccc2S(=O)(=O)N1)Nc1ccccc1 [MLS001028511],< 3.52
9,CCOC(=O)c1c(S(=O)(=O)NCC(=O)Nc2ccccc2)c(C)n(C)c1C [MLS001028712],< 3.52
10,Cc1ccc(-n2nc3c(N4CCC(C(=O)N5CCCCCC5)CC4)nnc(C)c3c2C)cc1 [MLS001028811],< 3.52
11,COc1cccc(/C=C2/Sc3ccc(C(=O)NCCN4CCCCCC4)cc3NC2=O)c1 [MLS001030753],4.02
12,Fc1cccc(Nc2ncnc3n[nH]cc23)c1 [MLS001033418],4.49
13,COc1cc(OC)cc(C(=O)NCC2CCCN(C(=O)c3csc(C)n3)C2)c1 (configuration not stated) [MLS001072180],< 3.52
14,CC(=NNC(=O)c1nnn(-c2nonc2N)c1CN1CCC(C)CC1)c1cccc(Br)c1 [MLS001075097],4.60
15,COc1cccc2c1cc1c(=O)n(CC(=O)NCCCc3ccccc3)nc(C)n12 [MLS001076397],< 3.52
16,CC(=O)Nc1c(-c2ccccc2)nc2ccc(Cl)cn12 [MLS001077169],< 3.52
17,Cc1ccc(NC(=O)c2ccc(C)c(S(=O)(=O)N3CCCCC3)c2)nc1 [MLS001078236],< 3.52
18,Cc1cc(CN(C)C(=O)c2ccc(OC3CCN(CCc4ccccc4)CC3)cc2)on1 [MLS001100796],< 3.52
19,O=C(NCc1ccncc1)C1CCC(=O)N(CCc2ccc(Cl)cc2)C1 (configuration not stated) [MLS001100847],< 3.52
20,CCCN1CCN(CCCNC(=O)Cn2nc(C)n3c(cc4cc(OC)ccc43)c2=O)CC1 [MLS001110985],< 3.52
21,CCCN1CCN(CCCNC(=O)c2ccc3c(c2)NC(=O)c2ccccc2S3)CC1 [MLS001110989],< 3.52
22,Cc1cc(=O)nc2c3ccccc3n(CC(=O)NCCCN3CCCCC3C)n12 (configuration not stated) [MLS001115992],< 3.52

row,SMILES,pEC50
1,COc1cc(SC)ccc1C(=O)OCC(=O)NCCNC(=O)COC(=O)c1ccc(SC)cc1OC [MLS001129814],< 3.52
2,COc1ccc2nc(NC(=O)CSc3nnc(N)[nH]3)sc2c1 [MLS001138435],5.51
3,CC(C)c1c(C(=O)NN=Cc2ccoc2)nnn1-c1nonc1N [MLS001139450],< 3.52
4,CN(Cc1c(C(=O)NN=Cc2ccccc2F)nnn1-c1nonc1N)c1ccccc1 [MLS001141029],< 3.52
5,CN(Cc1c(C(=O)NN=Cc2cccc(O)c2)nnn1-c1nonc1N)C1CCCCC1 [MLS001142859],6.15
6,CCCCCC(=O)N1CCN(S(=O)(=O)c2ccc3c(c2)OCCCO3)CC1 [MLS001161784],< 3.52
7,COc1ccc(-c2nn(-c3ccccc3)cc2C=O)cc1[N+](=O)[O-] [MLS001163277],< 3.52
8,COC(=O)c1cccc(Nc2nc(-c3ccncc3)nc3ccccc23)c1 [MLS001163930],< 3.52
9,Cc1cccc(COc2ccc(/C=C3/C(=O)N(C)C(=S)N3C)cc2)c1 [MLS001164511],< 3.52
10,COCCCNc1nc(N)c([N+](=O)[O-])c(NC2CCCCC2)n1 [MLS001165157],6.07
11,N#Cc1c(-c2ccccc2)nc(-c2cccnc2)[nH]c1=O [MLS001165441],< 3.52
12,COc1ccc(C(=O)c2ccsc2N)cc1 [MLS001166080],< 3.52
13,COCCn1c(SCC(=O)NCc2ccccc2)nc2ccccc21 [MLS001171409],< 3.52
14,COc1ccc(N2CCN(c3cc(C)nc4ccc(OC)cc34)CC2)cc1 [MLS001174346],< 3.52
15,Nc1ncc([N+](=O)[O-])c(N2CCCCCC2)n1 [MLS001174873],4.73
16,CN(C)c1nc2c(N)ncnc2n1[C@H]1O[C@@H](CO)[C@H](O)[C@@H]1O [MLS001181978],< 3.52
17,COc1ccc(CN=Nc2ccc([N+](=O)[O-])cc2)cc1O [MLS001198430],< 3.52
18,COc1ccc(C(=O)c2coc3ccc(O)cc23)cc1 [MLS001198628],4.88
19,Cc1ccc(CNS(=O)(=O)c2c(C)[nH]c(=O)[nH]c2=O)cc1 [MLS001200136],< 3.52
20,COC(=O)c1nnn(-c2nonc2N)c1CN1CCCC1 [MLS001202105],< 3.52
21,CC(CC(=O)Nc1nnc(C(C)(C)C)s1)c1ccccc1 (configuration not stated) [MLS001205585],< 3.52
22,COc1ccccc1-c1c(C(F)(F)F)oc2c(CN(C)C)c(O)ccc2c1=O [MLS001206868],< 3.52

# Results, then the compound that gave them:
row,pEC50,SMILES
1,4.97,Cc1[nH]nc2c1C(c1cccs1)C1C(=O)CCCC1=N2 (configuration not stated) [MLS001003570]
2,< 3.52,Cc1ccc(C(=O)NN=C2CCCc3ccccc32)c(C)c1 [MLS001005817]
3,4.47,c1ccc(-c2nc(NCCCn3ccnc3)c3ccccc3n2)cc1 [MLS001007021]
4,< 3.52,CCc1nnc(NC(=O)c2ccc3c(=O)n4c(nc3c2)CCCCC4)s1 [MLS001007070]
5,< 3.52,Cc1nc(N2CCOCC2)nc(N2CCCCC2C)c1[N+](=O)[O-] (configuration not stated) [MLS001012395]
6,4.60,O=c1c2ccccc2cnn1-c1nc2ccccc2[nH]1 [MLS001017304]
7,4.57,O=C(Nc1ccccc1)Nc1ncc([N+](=O)[O-])s1 [MLS001018461]
8,< 3.52,CCOc1ccc(CNC(=O)C2CCN(c3nnc(C)c4c(C)n(-c5ccc(C)cc5)nc34)CC2)cc1 [MLS001028751]
9,5.18,CCN1CCCC1CNC(=O)c1ccc2c(c1)NC(=O)/C(=C\c1ccc(OC)c(OC)c1)S2 (configuration not stated) [MLS001030689]
10,< 3.52,CC(CC(=O)Nc1ccc2c(c1)OCO2)=NNC(=O)c1ccc(N)cc1 [MLS001042207]
11,5.31,CC(C)CC(=O)Nc1ncc([N+](=O)[O-])s1 [MLS001043214]
12,< 3.52,O=C1N=C(N2CCc3ccccc3C2)S/C1=C\c1ccc(O)cc1 [MLS001043290]
13,< 3.52,CCCCCCCCCCCCC(=O)CCCCC(=O)O [MLS001049131]
14,< 3.52,C=CCC1(CC=C)CCCN1C(=O)C1CCC(=O)N(CCc2ccc(OC)cc2)C1 (configuration not stated) [MLS001072450]
15,4.65,Nc1nonc1-n1nnc(C(=O)NN=Cc2ccccc2F)c1CN1CCc2ccccc21 [MLS001075096]
16,5.05,Nc1nonc1-n1nnc(C(=O)NN=Cc2ccc(OCc3ccccc3)cc2)c1CN1CCCCC1 [MLS001075115]
17,< 3.52,CCN1CCN(C(=O)Cn2nc(C)n3c(cc4c(OC)cccc43)c2=O)CC1 [MLS001076371]
18,< 3.52,CC(=NNC(=O)c1nnn(-c2nonc2N)c1CN1CCc2ccccc21)c1ccccc1O [MLS001076839]
19,< 3.52,COc1cccc(NC(=O)CN(C2=NC3CS(=O)(=O)CC3S2)c2cccc(C)c2)c1 (configuration not stated) [MLS001110132]
20,< 3.52,CCc1nn(CC(=O)NCCN2CCN(C)CC2)c(=O)c2cc3c(OC)cccc3n12 [MLS001110984]
21,< 3.52,COc1ccc(C)cc1NC(=O)CN(C)S(=O)(=O)c1ccc2c(c1)CC(C)N2C(C)=O (configuration not stated) [MLS001122753]
22,< 3.52,COc1ccc(NC(=O)c2cccc(N3C(=O)c4cccc([N+](=O)[O-])c4C3=O)c2)cc1 [MLS001125857]
23,4.81,CN(Cc1c(C(=O)NN=Cc2cccc(F)c2)nnn1-c1nonc1N)c1ccccc1 [MLS001141039]
24,6.73,CN(Cc1c(C(=O)NN=Cc2ccc(O)cc2)nnn1-c1nonc1N)C1CCCCC1 [MLS001142838]

row,pEC50,SMILES
1,< 3.52,Clc1ccccc1Nc1nc(-c2ccncc2)nc2ccccc12 [MLS001163918]
2,< 3.52,CCc1n[nH]c(=S)n1N=CC(C)=Cc1ccccc1 [MLS001164489]
3,5.38,COc1cc(C=Nn2c(C3CCCCC3)n[nH]c2=S)cc(Br)c1O [MLS001164684]
4,4.42,CN(C)CCCNc1nc(N)c([N+](=O)[O-])c(NCc2ccccc2)n1 [MLS001165050]
5,< 3.52,COc1cccc(C(=O)CC(C#N)c2ccc(F)cc2)c1 (configuration not stated) [MLS001165246]
6,< 3.52,N#Cc1c(Cl)nc(-c2cccnc2)nc1-c1ccccc1 [MLS001165453]
7,< 3.52,CS(=O)(=O)Nc1cccc(-c2cn3c(n2)SCC3)c1 [MLS001167062]
8,5.27,COC1=CC(CN=Nc2ccc([N+](=O)[O-])cn2)C=C(OC)C1=O [MLS001173549]
9,< 3.52,CCN1CCN(CC2COc3ccccc3O2)CC1 (configuration not stated) [MLS001173643]
10,4.81,O=C(c1ccc(Br)cc1)c1coc2ccc(O)cc12 [MLS001178337]
11,< 3.52,CCN(CC)CCOC(=O)c1ccc(NC(=S)NC(=O)C=Cc2ccco2)cc1 [MLS001178772]
12,4.49,COc1ccc(C(=O)c2sc(Nc3ccccc3)nc2C)cc1 [MLS001181792]
13,4.66,Cc1nc[nH]c1C(=O)NN=Cc1c(Cl)cccc1Cl [MLS001182271]
14,< 3.52,O=C1Nc2ccccc2/C1=N/c1cccc([N+](=O)[O-])c1 [MLS001194693]
15,4.40,COCc1c(C(=O)NN=Cc2ccncc2)nnn1-c1nonc1N [MLS001194772]
16,< 3.52,Cc1ccc(-c2nc(Nc3cccc(O)c3)c3ccccc3n2)cc1 [MLS001196546]
17,< 3.52,Cc1ccc(NC2=CC(=O)CC(C)(C)C2)cc1F [MLS001198284]
18,< 3.52,COc1cccc2cc(CC(=O)c3cc(C)ccc3C)c(=O)oc12 [MLS001198676]
19,6.45,COc1ccc(C(=O)c2sc(Nc3ccccc3)nc2N)cc1OC [MLS001202046]
20,< 3.52,O=C1N=C(Nc2ccccc2Cl)SC1=Cc1ccc(C(=O)O)cc1 [MLS001203362]
21,< 3.52,NC(=O)CSc1nnc(COc2ccc3ccccc3c2)o1 [MLS001203608]
22,< 3.52,O=C(CN1C(=O)COc2ccccc21)Nc1ccccc1F [MLS001205921]
23,4.58,Cc1ccc(C(=O)O/N=C(\N)c2ccccn2)c(Cl)c1 [MLS001206211]
24,< 3.52,COc1cccc(C2Nc3ccccc3N=C3CC(C)(C)CC(=O)C32)c1 (configuration not stated) [MLS001207292]
